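How tested: cells in 96-well plates exposed to compound for 48 hours at five concentrations. Abbreviation: GI50, concentration required for 50% inhibition of growth.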 The source made the active and inactive calls. Rule as the data show it: active = GI50 up to about 1.1 µM and inactive = higher.
What was measured:
Assay in all cases: NCI tumour cell line growth inhibition, 48 h
HCC 2998 = test system: HCC 2998
UO-31 = test system: UO-31
K562 = test system: K562
UACC-257 = test system: UACC-257
A549 = test system: A549
OVCAR-8 = test system: OVCAR-8
NCI-H460 = test system: NCI-H460
SK-MEL-5 = test system: SK-MEL-5
SW-620 = test system: SW-620
DMS-273 = test system: DMS-273
UACC-62 = test system: UACC-62
SK-MEL-2 = test system: SK-MEL-2
SF-268 = test system: SF-268
U-251 = test system: U-251
CCRF-CEM = test system: CCRF-CEM
RXF 393 = test system: RXF 393
SNB-75 = test system: SNB-75
DLD-1 = test system: DLD-1
SK-MEL-28 = test system: SK-MEL-28
TK-10 = test system: TK-10
DMS-114 = test system: DMS-114
MOLT-4 = test system: MOLT-4
OVCAR-4 = test system: OVCAR-4
HOP-18 = test system: HOP-18
NCI-H23 = test system: NCI-H23
NCI-H522 = test system: NCI-H522
HCT-15 = test system: HCT-15
RXF 631 = test system: RXF 631
IGROV-1 = test system: IGROV-1
XF498 = test system: XF498
SN12C = test system: SN12C
EKVX = test system: EKVX
SF-295 = test system: SF-295
COLO 205 = test system: COLO 205
SF-539 = test system: SF-539
HOP-62 = test system: HOP-62
SNB-19 = test system: SNB-19
HL-60 = test system: HL-60
HT-29 = test system: HT-29
KM12 = test system: KM12
HCT-116 = test system: HCT-116
M19-MEL = test system: M19-MEL
ACHN = test system: ACHN
786-0 = test system: 786-0
Malme-3M = test system: Malme-3M
SK-OV-3 = test system: SK-OV-3
A498 = test system: A498
M14 = test system: M14
KM-20L2 = test system: KM-20L2
OVCAR-3 = test system: OVCAR-3
CAKI-1 = test system: CAKI-1
RPMI-8226 = test system: RPMI-8226
LXFL 529 = test system: LXFL 529
NCI-H226 = test system: NCI-H226
LOX IMVI = test system: LOX IMVI
SR = test system: SR
SNB-78 = test system: SNB-78
OVCAR-5 = test system: OVCAR-5
HOP-92 = test system: HOP-92

`CN(C)CCC(CCN(C)C)=NOC(=O)c1ccccc1` was tested, and the GI50 (HCC 2998) was > 100 µM (inactive), the GI50 (UO-31) was > 100 µM (inactive) and the GI50 (K562) was > 100 µM (inactive). The GI50 (UACC-257) was > 100 µM (inactive), the GI50 (A549) was > 100 µM (inactive) and the GI50 (OVCAR-8) was > 100 µM (inactive). For the same compound, the GI50 (NCI-H460) was > 100 µM (inactive), the GI50 (SK-MEL-5) was > 100 µM (inactive) and the GI50 (SW-620) was > 100 µM (inactive). The GI50 (DMS-273) was > 100 µM (inactive), the GI50 (UACC-62) was > 100 µM (inactive) and the GI50 (SK-MEL-2) was > 100 µM (inactive). The GI50 (SF-268) was > 100 µM (inactive), the GI50 (U-251) was > 100 µM (inactive) and the GI50 (CCRF-CEM) was > 100 µM (inactive). The GI50 (RXF 393) was > 100 µM (inactive), the GI50 (SNB-75) was > 100 µM (inactive) and the GI50 (DLD-1) was > 100 µM (inactive). For the same compound, the GI50 (SK-MEL-28) was > 100 µM (inactive), the GI50 (TK-10) was > 100 µM (inactive) and the GI50 (DMS-114) was > 100 µM (inactive). The GI50 (MOLT-4) was > 100 µM (inactive), the GI50 (OVCAR-4) was > 100 µM (inactive) and the GI50 (HOP-18) was > 100 µM (inactive). For the same compound, the GI50 (NCI-H23) was > 100 µM (inactive), the GI50 (NCI-H522) was > 100 µM (inactive) and the GI50 (HCT-15) was over 100 µM. The GI50 (RXF 631) was > 100 µM (inactive), the GI50 (IGROV-1) was > 100 µM (inactive) and the GI50 (XF498) was > 100 µM (inactive). The GI50 (SN12C) was > 100 µM (inactive), the GI50 (EKVX) was > 100 µM (inactive) and the GI50 (SF-295) was > 100 µM (inactive). The GI50 (COLO 205) was > 100 µM (inactive), the GI50 (SF-539) was > 100 µM (inactive) and the GI50 (HOP-62) was > 100 µM (inactive). For the same compound, the GI50 (SNB-19) was > 100 µM (inactive), the GI50 (HL-60) was > 100 µM (inactive) and the GI50 (HT-29) was > 100 µM (inactive). The GI50 (KM12) was > 100 µM (inactive), the GI50 (HCT-116) was > 100 µM (inactive) and the GI50 (M19-MEL) was > 100 µM (inactive). For the same compound, the GI50 (ACHN) was > 100 µM (inactive), the GI50 (786-0) was > 100 µM (inactive) and the GI50 (Malme-3M) was > 100 µM (inactive). For the same compound, the GI50 (SK-OV-3) was > 100 µM (inactive), the GI50 (A498) was > 100 µM (inactive) and the GI50 (M14) was > 100 µM (inactive). For the same compound, the GI50 (KM-20L2) was > 100 µM (inactive), the GI50 (OVCAR-3) was > 100 µM (inactive) and the GI50 (CAKI-1) was > 100 µM (inactive). The GI50 (RPMI-8226) was > 100 µM (inactive) and the GI50 (LXFL 529) was > 100 µM (inactive).

`CCOc1cc2c[n+](C)c3c4cc(OC)c(OC)cc4ccc3c2cc1OC` was tested, and the GI50 (HCC 2998) was > 100 µM (inactive), the GI50 (NCI-H226) was > 100 µM (inactive) and the GI50 (UO-31) was > 100 µM (inactive). For the same compound, the GI50 (K562) was > 100 µM (inactive), the GI50 (UACC-257) was > 100 µM (inactive) and the GI50 (A549) was > 100 µM (inactive). For the same compound, the GI50 (OVCAR-8) was 17.7 µM (inactive), the GI50 (NCI-H460) was > 100 µM (inactive) and the GI50 (SK-MEL-5) was > 100 µM (inactive). For the same compound, the GI50 (SW-620) was > 100 µM (inactive), the GI50 (SK-MEL-2) was > 100 µM (inactive) and the GI50 (SF-268) was > 100 µM (inactive). The GI50 (U-251) was > 100 µM (inactive), the GI50 (CCRF-CEM) was 20.8 µM (inactive) and the GI50 (RXF 393) was > 100 µM (inactive). The GI50 (LOX IMVI) was > 100 µM (inactive), the GI50 (SR) was 20.4 µM (inactive) and the GI50 (SNB-75) was > 100 µM (inactive). For the same compound, the GI50 (DLD-1) was > 100 µM (inactive), the GI50 (SK-MEL-28) was > 100 µM (inactive) and the GI50 (TK-10) was > 100 µM (inactive). The GI50 (DMS-114) was > 100 µM (inactive), the GI50 (MOLT-4) was > 100 µM (inactive) and the GI50 (OVCAR-4) was > 100 µM (inactive). The GI50 (HOP-18) was 60.8 µM (inactive), the GI50 (NCI-H23) was > 100 µM (inactive) and the GI50 (NCI-H522) was > 100 µM (inactive). The GI50 (HCT-15) was over 100 µM, the GI50 (RXF 631) was 4.07 µM (inactive) and the GI50 (IGROV-1) was > 100 µM (inactive). The GI50 (SN12C) was > 100 µM (inactive), the GI50 (EKVX) was > 100 µM (inactive) and the GI50 (SF-295) was > 100 µM (inactive). The GI50 (COLO 205) was > 100 µM (inactive), the GI50 (SF-539) was > 100 µM (inactive) and the GI50 (HOP-62) was > 100 µM (inactive). The GI50 (SNB-19) was > 100 µM (inactive), the GI50 (HL-60) was 97.5 µM (inactive) and the GI50 (HT-29) was 13.6 µM (inactive). For the same compound, the GI50 (KM12) was > 100 µM (inactive), the GI50 (HCT-116) was > 100 µM (inactive) and the GI50 (M19-MEL) was > 100 µM (inactive). For the same compound, the GI50 (ACHN) was > 100 µM (inactive), the GI50 (786-0) was 17.7 µM (inactive) and the GI50 (Malme-3M) was > 100 µM (inactive). For the same compound, the GI50 (SNB-78) was > 100 µM (inactive), the GI50 (OVCAR-5) was > 100 µM (inactive) and the GI50 (M14) was > 100 µM (inactive). The GI50 (KM-20L2) was > 100 µM (inactive), the GI50 (HOP-92) was > 100 µM (inactive) and the GI50 (OVCAR-3) was > 100 µM (inactive). The GI50 (CAKI-1) was > 100 µM (inactive), the GI50 (RPMI-8226) was > 100 µM (inactive) and the GI50 (LXFL 529) was > 100 µM (inactive).

— ChEMBL document CHEMBL1201862, “PubChem BioAssay data set” (2004)
